These results are taken from US20240270821A1, “GIP/GLP1/GCG TRI-RECEPTOR AGONISTS AND USES THEREOF” (priority 2023, published 2024).

Like-named read-outs stand apart in the source and are kept apart here. Starred links: 1 amine or outer side, 2 acyl side, 3 side chain; linkers in the order of their positions; H or OH if unused. Non-standard residues stand in square brackets, D forms with d. Groups on a side chain read outwards from the residue. No end group written: not given here. *: point of attachment. C18 diacid = O=C(O)CCCCCCCCCCCCCCCCC(=O)*; αMePhe(2-F) = C[C@](N)(Cc1ccccc1F)C(=O)O; γGlu = O=C(O)[C@H](CCC(=O)[*:2])N[*:1]; αMe4Pal = C[C@](N)(Cc1ccncc1)C(=O)O; αMeY = C[C@](N)(Cc1ccc(O)cc1)C(=O)O; 4Pal = N[C@@H](Cc1ccncc1)C(=O)O; αMeL = CC(C)C[C@](C)(N)C(=O)O; αMeS = C[C@](N)(CO)C(=O)O; Orn = NCCC[C@H](N)C(=O)O; AEEA = NCCOCCOCC(=O)O; Aib = CC(C)(N)C(=O)O

Type in all cases: cell-based
Assay [1] concerns the target hGcgR (Homo sapiens, UniProt P47871). In words: Functional cAMP activation in the presence of 0.1% casein (no HSA). The following applies: read-out: Relative cAMP EC50, hGcgR.
Assay [2] addresses T1, hGIPR (Homo sapiens, UniProt P48546).
T1 sequence (P48546 22-466): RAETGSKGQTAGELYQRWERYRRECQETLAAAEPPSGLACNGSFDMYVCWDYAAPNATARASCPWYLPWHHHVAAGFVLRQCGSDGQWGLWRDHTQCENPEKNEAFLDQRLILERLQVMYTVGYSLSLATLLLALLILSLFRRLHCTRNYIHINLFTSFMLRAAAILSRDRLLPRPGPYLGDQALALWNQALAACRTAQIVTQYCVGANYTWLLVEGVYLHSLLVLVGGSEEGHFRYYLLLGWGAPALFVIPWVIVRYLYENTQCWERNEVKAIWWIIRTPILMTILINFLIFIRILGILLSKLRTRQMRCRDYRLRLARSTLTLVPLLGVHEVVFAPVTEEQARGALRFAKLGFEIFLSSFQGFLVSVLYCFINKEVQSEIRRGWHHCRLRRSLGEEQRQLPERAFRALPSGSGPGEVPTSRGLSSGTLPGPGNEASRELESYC
The description is as above. The note with it: read-out: Relative cAMP EC50, hGIPR.

The target of assay [3] is T2, hGLP-1R (Homo sapiens, UniProt P43220). Described as above. The following applies: read-out: Relative cAMP EC50, hGLP-1R.
T2 sequence (P43220 24-463): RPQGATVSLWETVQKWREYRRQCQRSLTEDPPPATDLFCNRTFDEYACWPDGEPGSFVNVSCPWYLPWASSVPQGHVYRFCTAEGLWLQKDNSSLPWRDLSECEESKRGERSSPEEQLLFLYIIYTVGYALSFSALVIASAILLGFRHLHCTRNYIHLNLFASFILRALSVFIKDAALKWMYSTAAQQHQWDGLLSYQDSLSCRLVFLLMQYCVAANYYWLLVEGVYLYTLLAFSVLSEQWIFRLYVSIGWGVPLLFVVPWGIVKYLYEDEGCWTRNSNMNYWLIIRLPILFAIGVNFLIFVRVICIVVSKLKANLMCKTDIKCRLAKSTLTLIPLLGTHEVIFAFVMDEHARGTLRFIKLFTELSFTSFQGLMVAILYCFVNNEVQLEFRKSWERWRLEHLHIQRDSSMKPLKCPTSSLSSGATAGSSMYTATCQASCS
Assay [4] has as its target human GcgR (Homo sapiens, UniProt P47871). In words: Functional cAMP activity in the presence of 1% HSA. The note with it: read-out: cAMP Rel EC50, hGcgR.
Assay [5] deals with T2, hGLP-1R. In words: Functional cAMP activity in the presence of 1% HSA. The note with it: read-out: cAMP Rel EC50, hGLP-1R.
Assay [6] deals with T1, hGIPR. In words: Functional cAMP activity in the presence of 1% HSA. The following applies: read-out: cAMP Rel EC50, hGIPR.
Where [7] appears, read: in the presence of 0.1% casein (no HSA), geometric mean of relative EC50.
Setting [8] is: HEK-293 clonal cell line, 1% HSA, geometric mean of relative EC50.
The mark [9] stands for this setting: 0.1% casein, no HSA, geometric mean.
[10] abbreviates: in the presence of 0.1% casein (no HSA), geometric mean.
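Wherever Relative cAMP EC50, hGIPR is given: intracellular cAMP rise after 30 min at 37 °C read by HTRF against a standard curve, scaled between buffer alone (0%) and top control ligand concentration (100%), four-parameter fit.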
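Wherever Relative cAMP EC50, hGLP-1R is given: intracellular cAMP rise after 30 min at 37 °C read by HTRF, normalized between buffer only (0%) and maximal control ligand (100%), four-parameter variable-slope fit.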
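Wherever Relative cAMP EC50, hGcgR is given: intracellular cAMP rise after 30 min at 37 °C, read by HTRF against a cAMP standard curve, scaled from buffer only (0%) to maximal control ligand response (100%).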

Chain of human GcgR (P47871 26-477): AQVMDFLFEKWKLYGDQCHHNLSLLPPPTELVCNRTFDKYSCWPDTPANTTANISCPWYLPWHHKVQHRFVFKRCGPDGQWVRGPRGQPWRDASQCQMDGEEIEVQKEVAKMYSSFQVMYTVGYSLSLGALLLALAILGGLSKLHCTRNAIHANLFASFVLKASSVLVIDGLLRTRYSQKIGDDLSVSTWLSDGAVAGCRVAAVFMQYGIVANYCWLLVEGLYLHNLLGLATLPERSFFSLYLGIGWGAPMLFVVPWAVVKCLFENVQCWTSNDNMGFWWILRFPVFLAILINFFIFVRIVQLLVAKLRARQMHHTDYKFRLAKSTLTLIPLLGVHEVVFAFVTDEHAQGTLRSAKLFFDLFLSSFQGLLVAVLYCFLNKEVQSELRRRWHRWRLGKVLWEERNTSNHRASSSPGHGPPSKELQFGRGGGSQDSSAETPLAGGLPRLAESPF
Chain of hGcgR (P47871 26-477): as above

Regarding “Y[Aib]QGT[αMePhe(2-F)]TSD[4Pal]SI[αMeL]LD[Orn]K([AEEA-γGlu-C18 diacid])AQ[αMe4Pal][Orn]FI[dE][αMeY]LIEGGPSSGAPPPEGGGE-NH2 [Example 758]”, the EC50 in assay [1] was 3.99 nM; in assay [2] it was 0.0212 nM; in assay [3], 0.195 nM; in assay [4], 388 nM; in assay [5] it was 31.3 nM; in assay [6] it was 1.59 nM.
As to “Y[Aib]QGT[αMePhe(2-F)]TSD[4Pal]SI[αMeL]LD[Orn]K([AEEA-γGlu-C18 diacid])AQ[αMe4Pal][Orn]FI[dE][αMeY]LIEGGPSSGDPPPEAE-NH2 [Example 728]”, the concentration for a half-maximal effect (EC50) was 2.45 nM in assay [1]; 0.0116 nM in assay [2]; 0.277 nM in assay [3]; 298 nM in assay [4]; 26.7 nM in assay [5]; 1.45 nM in assay [6].
For the substance “Y[Aib]QGT[αMePhe(2-F)]TSD[4Pal]SI[αMeL]LD[Orn]K([AEEA-γGlu-C18 diacid])AQ[αMe4Pal][Orn]FI[dE][αMeY]LIEGGPSSGDPPPESE-NH2 [Example 729]”, the half-maximal effective concentration (EC50) in assay [1] came out at 2.11 nM; in assay [2], 0.0113 nM; in assay [3], 0.288 nM; in assay [4] it was 276 nM; in assay [5] it was 27 nM; in assay [6] it was 1.43 nM.
“Y[Aib]QGT[αMePhe(2-F)]TSD[4Pal]SI[αMeL]LD[Orn]K([AEEA-γGlu-C18 diacid])AQ[αMe4Pal][Orn]FI[dE][αMeY]LIEGGPSSGEPPPEGEG[dE]-NH2 [Example 692]”: the 50% effective concentration (EC50) in assay [1] (setting [7]) is 2.14 nM; in assay [2] (setting [7]), 0.0106 nM; in assay [3] (setting [7]), 0.252 nM; in assay [4] (setting [8]) it was 380 nM; in assay [5] (setting [8]), 25.2 nM; in assay [6] (setting [8]), 1.25 nM.
Consider “Y[Aib]QGT[αMePhe(2-F)]TSD[4Pal]SI[αMeL]LD[Orn]K([AEEA-γGlu-C18 diacid])AQ[αMe4Pal][Orn]FI[dE][αMeY]LIEGGPSSGEPPPEGGGE-NH2 [Example 757]”, for which the concentration giving a half-maximal response (EC50) in assay [1] stood at 2.32 nM; in assay [2] it was 0.00959 nM; in assay [3], 0.236 nM; in assay [4] it was 310 nM; in assay [5], 30.8 nM; in assay [6], 1.81 nM.
With “Y[Aib]QGT[αMePhe(2-F)]TSD[4Pal]SI[αMeL]LD[Orn]K([AEEA-γGlu-C18 diacid])AQ[αMe4Pal][Orn]FI[dE][αMeY]LIEGGPSSGEPPPEGTE-NH2 [Example 679]”, the concentration giving a half-maximal response (EC50) in assay [1] is 3.22 nM; in assay [2], 0.0123 nM; in assay [3] it was 0.255 nM; in assay [4], 188 nM; in assay [5], 21.6 nM; in assay [6] it was 1.02 nM.
In the case of “Y[Aib]QGT[αMePhe(2-F)]TSD[4Pal]SI[αMeL]LD[Orn]K([AEEA-γGlu-C18 diacid])AQ[αMe4Pal][Orn]FI[dE][αMeY]LIEGGPSSGEPPPEGT[dE]-NH2 [Example 691]”, the 50% effective concentration (EC50) in assay [1] is 2.46 nM; in assay [2], 0.0117 nM; in assay [3], 0.26 nM; in assay [4], 308 nM; in assay [5], 28.9 nM; in assay [6], 1.17 nM.
Consider “Y[Aib]QGT[αMePhe(2-F)]TSD[4Pal]SI[αMeL]LD[Orn]QAQ[αMe4Pal][Orn]FI[dE][αMeY]LIEGGPSSGEPPPETE-NH2 [Example 1230]”, for which the 50% effective concentration (EC50) was found to be 64.7 nM in assay [1] (setting [9]); 0.022 nM in assay [2] (setting [9]); 1.19 nM in assay [3] (setting [9]); 68.4 nM in assay [4]; 1.14 nM in assay [5]; 0.0152 nM in assay [6].
Take “Y[Aib]QGT[αMePhe(2-F)]TSD[4Pal][αMeS]ILLD[Orn]K([γGlu-γGlu-C18 diacid])AQ[Aib][Orn]FI[dE]YLIEGGPSSGEPPPEGEEE-NH2 [Example 606]”: the EC50 is 5.01 nM in assay [1]; 0.17 nM in assay [2]; 0.786 nM in assay [3]; 474 nM in assay [4]; 53.1 nM in assay [5]; 5.69 nM in assay [6].
Turning to “Y[Aib]QGT[αMePhe(2-F)]TSD[4Pal][αMeS]ILLD[Orn]K([γGlu-γGlu-C18 diacid])AQ[Aib][Orn]FI[dE]YLIEGGPSSGEPPPEGGEE-NH2 [Example 605]”, the EC50 in assay [1] came out at 5.49 nM; in assay [2], 0.132 nM; in assay [3], 0.795 nM; in assay [4] it was 353 nM; in assay [5], 56.2 nM; in assay [6], 6.69 nM.
In the case of “Y[Aib]QGT[αMePhe(2-F)]TSD[4Pal][αMeS]ILLD[Orn]K([γGlu-γGlu-C18 diacid])AQ[Aib][Orn]FI[dE]YLIEGGPSSGEPPPSETE-NH2 [Example 555]”, the EC50 worked out at 3.56 nM in assay [1] (setting [7]); 0.0601 nM in assay [2] (setting [7]); 0.445 nM in assay [3] (setting [7]); 274 nM in assay [4] (setting [8]); 42 nM in assay [5] (setting [8]); 5.31 nM in assay [6] (setting [8]).
As for “Y[Aib]QGT[αMePhe(2-F)]TSD[4Pal][αMeS]ILLD[Orn]K([γGlu-γGlu-C18 diacid])AQ[Aib][Orn]FI[dE][αMeY]LQEGGPSSGEPPPEGAE-NH2 [Example 546]”, the 50% effective concentration (EC50) in assay [1] came to 3.67 nM; in assay [2] it was 0.25 nM; in assay [3], 0.517 nM; in assay [4], 225 nM; in assay [5], 34.4 nM; in assay [6], 11.9 nM.
Regarding “Y[Aib]QGT[αMePhe(2-F)]TSD[4Pal][αMeS]I[αMeL]LD[Orn]K([AEEA-γGlu-C18 diacid])AA[Aib]EFI[dE][αMeY]LIEGGPSSGAPPPSGE-NH2 [Example 701]”, the EC50 was found to be 1.48 nM in assay [1]; 0.01 nM in assay [2]; 0.22 nM in assay [3]; 226 nM in assay [4]; 24.9 nM in assay [5]; 0.979 nM in assay [6].
For “Y[Aib]QGT[αMePhe(2-F)]TSD[4Pal][αMeS]I[αMeL]LD[Orn]K([AEEA-γGlu-C18 diacid])AA[Aib]EFI[dE][αMeY]LIEGGPSSGAPPPSGGGE-NH2 [Example 745]”, the EC50 stood at 1.86 nM in assay [1]; 0.012 nM in assay [2]; 0.212 nM in assay [3]; 266 nM in assay [4]; 29 nM in assay [5]; 1.36 nM in assay [6].
Turning to “Y[Aib]QGT[αMePhe(2-F)]TSD[4Pal][αMeS]I[αMeL]LD[Orn]K([AEEA-γGlu-C18 diacid])AA[Aib]EFI[dE][αMeY]LIEGGPSSGEPPPSGTE-NH2 [Example 719]”, the EC50 was 1.44 nM in assay [1] (setting [7]); 0.00998 nM in assay [2] (setting [7]); 0.22 nM in assay [3] (setting [7]); 181 nM in assay [4] (setting [8]); 23.2 nM in assay [5] (setting [8]); 0.882 nM in assay [6] (setting [8]).
For the substance “Y[Aib]QGT[αMePhe(2-F)]TSD[4Pal][αMeS]I[αMeL]LD[Orn]K([AEEA-γGlu-C18 diacid])AQ[αMe4Pal]EFI[dE][αMeY]LIEGGPPS[Aib]EPPPEGE-NH2 [Example 1190]”, the EC50 stood at 1.68 nM in assay [1] (setting [10]); 0.0109 nM in assay [2] (setting [10]); 0.765 nM in assay [3] (setting [10]); 192 nM in assay [4]; 77.4 nM in assay [5]; 0.954 nM in assay [6].
As for “Y[Aib]QGT[αMePhe(2-F)]TSD[4Pal][αMeS]I[αMeL]LD[Orn]K([AEEA-γGlu-C18 diacid])AQ[αMe4Pal]EFI[dE][αMeY]LIEGGPPS[Aib]EPPP[Orn]GE-NH2 [Example 1193]”, the EC50 in assay [1] (setting [9]) came to 1.56 nM; in assay [2] (setting [9]), 0.00897 nM; in assay [3] (setting [9]) it was 0.544 nM; in assay [4], 202 nM; in assay [5] it was 66.2 nM; in assay [6], 0.803 nM.
As for “Y[Aib]QGT[αMePhe(2-F)]TSD[4Pal][αMeS]I[αMeL]LD[Orn]K([AEEA-γGlu-C18 diacid])AQ[αMe4Pal]EFI[dE][αMeY]LIEGGPPS[Aib][Orn]PPPSGSE-NH2 [Example 1198]”, the concentration giving a half-maximal response (EC50) came to 1.8 nM in assay [1] (setting [9]); 0.00663 nM in assay [2] (setting [9]); 0.475 nM in assay [3] (setting [9]); 314 nM in assay [4]; 61 nM in assay [5]; 0.67 nM in assay [6].

One may read the EC50 as the concentration that produces a half-maximal response.
